Test results: patent US9642354B2, “Method of freezing cells” (Cellulis, S.L., priority 2010, dated 2017)

Experiments:
BALB3T3 cells = test: Cytotoxic test (MTT assay) on Balb3T3 fibroblasts thawed from two-layer frozen 96-well plate; format: cell-based; conditions: 24 h treatment started 24 h post-thawing, 5-Fluorouracil 20, 40, 80, 100 μg/ml, Tamoxifen 0.02, 1.25, 2.5, 5 μM
Procedure: (§1) Balb3T3 (ATCC, LCC Standards) fibroblasts and smooth muscle aortic cells (SMAC, freshly isolated from Sprague Dawley rats, Harlan Laboratories) primary cells were cultured in complete culture medium consisting of endotoxin-free DMEM (Sigma-Aldrich) supplemented with 10% FCS, 100 μg/ml penicillin and 100 IU/ml streptomycin (Sigma-Aldrich). […] The resulting cells were allowed to grow for twelve days prior to cryopresentation. Both cell types were grown in flasks until they were 80% confluent and then harvested. Harvesting took place by incubating cells in 5 ml of PBS with 0.05% EDTA for 2 minutes, and final detachment was achieved by incubation in 0.1% trypsin and 0.05% EDTA for another 5 minutes. Cells were centrifuged at 400×G for 5 minutes. Then, a total of 4.8 ml of a solution at 4° C. containing 50,000 cells/50 μl of freezing 80% DMEM, 10% FCS, 10% DMSO (AppliChem) medium was prepared (cell density determined by haemocytometer), forming the so-called freezing solution. Besides, 100 μl of complete culture medium was disposed in each cell of a 96-well plate and frozen down to −80° C. Once frozen, the plate is recovered and 50 μl/well of the said freezing solution were added on top each well containing 100 μl of complete culture medium already frozen. […] Twenty four hours later a MTT assay was performed and cytotoxicity was calculated according to the absorbance values. […]

Smac cells = test: Cytotoxic test (MTT assay) on smooth muscle aortic cells (SMAC) thawed from two-layer frozen 96-well plate; format: cell-based, rat; conditions: 24 h treatment started 24 h post-thawing, 5-Fluorouracil 20, 40, 80, 100 μg/ml, Tamoxifen 0.02, 1.25, 2.5, 5 μM
Procedure: as §1

O=c1[nH]cc(F)c(=O)[nH]1 [5-Fluorouracil]
cytotoxic response of BALB3T3 cells (BALB3T3 cells): Concentration dependent cytotoxic response | cytotoxic response of Smac cells (Smac cells): Concentration dependent cytotoxic response

CC/C(=C(\c1ccccc1)c1ccc(OCCN(C)C)cc1)c1ccccc1 [Tamoxifen]
cytotoxic response of BALB3T3 cells (BALB3T3 cells): Concentration dependent cytotoxic response | cytotoxic response of Smac cells (Smac cells): Concentration dependent cytotoxic response
